Results on eight compounds are retold here after ChEMBL document CHEMBL1201862, “PubChem BioAssay data set” (2004).

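Cells were grown in 96-well plates and exposed to each compound for 48 hours at five concentrations; endpoints were interpolated linearly between bracketing concentrations, or set to the highest concentration if not reached. GI50 = concentration required for 50% inhibition of growth.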 Calls of active or inactive are those of the source. Rule as the data show it: active = GI50 up to about 1.1 µM and inactive = higher. Where a SMILES comes first, the peptide text is derived from it. A value given as a limit tells only on which side of the number the result lay.

Among the test systems are CAKI-1; COLO 205; HCC 2998; HOP-92; HT-29; K562; LOX IMVI; MCF7; Malme-3M; OVCAR-5; RPMI-8226; SF-539; SK-MEL-28; SK-MEL-5; SK-OV-3; SN12C; UO-31; M14; T47D; Hs-578T.
Test in all cases: growth of human tumour cells (NCI), 48 h

Take `CCS(=O)(=O)Nc1ccc(Nc2c3ccccc3nc3ccccc23)c(OC)c1`: the GI50 with CAKI-1 is 0.0962 µM (active); with COLO 205, 2.22 µM (inactive); with HCC 2998, 1.72 µM (inactive); with HOP-92, 0.697 µM (active); in the experiment with HT-29 it was 1.07 µM (active); in the experiment with K562 it was 0.681 µM (active). Besides, the GI50 with LOX IMVI is 0.275 µM (active); in the experiment on MCF7 it was 0.0984 µM (active); in the experiment on Malme-3M it was 0.515 µM (active); in the experiment with OVCAR-5, 3.23 µM (inactive); with RPMI-8226, 0.28 µM (active); with SF-539, 0.295 µM (active). Besides, the GI50 was 3.03 µM (inactive) in the experiment on SK-MEL-28; 0.796 µM (active) with SK-MEL-5; 0.203 µM (active) with SK-OV-3; 0.166 µM (active) with SN12C; 0.397 µM (active) with UO-31.
Take `C=CCOC(=O)CCCCCCCCCCCCCCCOC(=O)C1=C(CCC[C@@H](C)O[Si](C)(C)C(C)(C)C)NC(=O)N2[C@H](CC3(CC/C=C\[C@H](CC)O[Si](C(C)C)(C(C)C)C(C)C)OCCO3)CC[C@H]12`: the GI50 is > 100 µM (inactive) in the experiment on CAKI-1; > 100 µM (inactive) in the experiment with COLO 205; > 100 µM (inactive) with HCC 2998; 18.9 µM (inactive) in the experiment on HOP-92; > 100 µM (inactive) in the experiment on M14; > 100 µM (inactive) in the experiment on MCF7. Also, the GI50 with Malme-3M is > 100 µM (inactive); in the experiment with OVCAR-5, > 100 µM (inactive); in the experiment with RPMI-8226 it was > 100 µM (inactive); with SF-539 it was 67.3 µM (inactive); with SK-MEL-28 it was > 100 µM (inactive); in the experiment on SK-MEL-5 it was > 100 µM (inactive). The GI50 in the experiment on SK-OV-3, in the experiment with SN12C, in the experiment on T47D and in the experiment with UO-31 was > 100 µM (inactive) in each case.
Consider `O=C(CCN1CCOCC1)C(=Cc1ccccc1)C(=O)CCN1CCOCC1`, for which the GI50 was 3.99 µM (inactive) with CAKI-1; 2.51 µM (inactive) with COLO 205; 13.7 µM (inactive) with HCC 2998; 2.11 µM (inactive) in the experiment with HOP-92; 2.98 µM (inactive) in the experiment on HT-29; 0.836 µM (active) with K562. For the same compound, the GI50 with LOX IMVI is 1.93 µM (inactive); in the experiment with MCF7, 3.19 µM (inactive); in the experiment with Malme-3M, 2.45 µM (inactive); with OVCAR-5, 19.2 µM (inactive); in the experiment on RPMI-8226, 1.04 µM (active); in the experiment with SF-539, 3.44 µM (inactive). Besides, the GI50 in the experiment with SK-MEL-28 is 2.38 µM (inactive); in the experiment on SK-MEL-5, 7.08 µM (inactive); in the experiment with SK-OV-3, 16.6 µM (inactive); in the experiment on SN12C it was 2.96 µM (inactive); with UO-31 it was 12.3 µM (inactive).
On to `Nc1nc(NNc2ccc(Cl)c(Cl)c2)cc(=O)[nH]1`, for which the GI50 in the experiment on COLO 205 is 16.6 µM (inactive); in the experiment with HCC 2998, 19.8 µM (inactive); with HOP-92 it was 21.9 µM (inactive); in the experiment on HT-29 it was 34.4 µM (inactive); in the experiment with Hs-578T, 30.5 µM (inactive); in the experiment on K562, 18.9 µM (inactive). Also, the GI50 in the experiment on LOX IMVI is 17.3 µM (inactive); with M14 it was 34.2 µM (inactive); with MCF7, 17.3 µM (inactive); with Malme-3M it was 46.9 µM (inactive); in the experiment with OVCAR-5, 43.4 µM (inactive); in the experiment with RPMI-8226 it was 32.2 µM (inactive). Further, the GI50 in the experiment with SF-539 was 99.1 µM (inactive); in the experiment with SK-MEL-28, 52.1 µM (inactive); with SK-MEL-5, 33.4 µM (inactive); with SN12C, 38.1 µM (inactive); with UO-31 it was 29.9 µM (inactive).
On to `O=c1[nH]c(=O)n(COCc2ccccc2)cc1Nc1ccc(Br)cc1`, for which the GI50 in the experiment on CAKI-1, in the experiment with COLO 205, in the experiment with HCC 2998, in the experiment with HOP-92, in the experiment on HT-29 and with Hs-578T was > 100 µM (inactive) each time. Further, the GI50 with K562, in the experiment on LOX IMVI, with M14, in the experiment on MCF7, in the experiment with OVCAR-5 and in the experiment on RPMI-8226 was > 100 µM (inactive) in each case. The GI50 in the experiment with SK-MEL-28, with SK-MEL-5, in the experiment on SN12C and in the experiment with UO-31 was > 100 µM (inactive) throughout.
Regarding `CC(C)Cc1ccc(C(C)/C=C2\CCC(CN3CCOCC3)C2=O)cc1` (stereo not given), the GI50 is 18 µM (inactive) in the experiment on CAKI-1; 9.44 µM (inactive) in the experiment with COLO 205; 11.6 µM (inactive) in the experiment on HCC 2998; 15.5 µM (inactive) with HOP-92; 6.73 µM (inactive) in the experiment on HT-29; 3.6 µM (inactive) with Hs-578T. The GI50 in the experiment with K562 is 1.92 µM (inactive); in the experiment on LOX IMVI it was 2.33 µM (inactive); in the experiment with M14, 5.02 µM (inactive); with MCF7, 4.31 µM (inactive); in the experiment on Malme-3M, 13.5 µM (inactive); in the experiment with OVCAR-5, 20.7 µM (inactive). The GI50 is 0.665 µM (active) in the experiment on RPMI-8226; 12.5 µM (inactive) with SF-539; 9.12 µM (inactive) in the experiment with SK-MEL-28; 10.4 µM (inactive) in the experiment with SK-MEL-5; 18.8 µM (inactive) in the experiment on SK-OV-3; 9.27 µM (inactive) with SN12C. In the experiment with UO-31, the GI50 was 8.73 µM (inactive).
On to `Clc1ccc(/N=c2\oc3ccccc3cc2-c2nc3ccccc3[nH]2)c(Cl)c1`, for which the GI50 with CAKI-1 was > 100 µM (inactive); with HOP-92 it was 43.6 µM (inactive); with HT-29 it was > 100 µM (inactive); in the experiment with Hs-578T it was 34.2 µM (inactive); with K562, > 100 µM (inactive); with LOX IMVI, > 100 µM (inactive). Moreover, the GI50 was > 100 µM (inactive) in the experiment on M14; > 100 µM (inactive) in the experiment with Malme-3M; > 100 µM (inactive) in the experiment on OVCAR-5; > 100 µM (inactive) in the experiment with RPMI-8226; 49.9 µM (inactive) in the experiment on SK-OV-3; > 100 µM (inactive) in the experiment with T47D. Also, the GI50 in the experiment with UO-31 was > 100 µM (inactive).
For `CC1NC(=O)CNC(=O)CNC(=O)C(Cc2ccc(O)cc2)NC(=O)C(C(C)C)NC(=O)C(C)NC1=O` (stereo not given) (cyclo(GGAAVY); configuration not given here), the GI50 in the experiment on CAKI-1 is > 100 µM (inactive); with COLO 205, > 100 µM (inactive); in the experiment with HCC 2998 it was > 100 µM (inactive); in the experiment with HOP-92, 50.8 µM (inactive); with HT-29 it was > 100 µM (inactive); in the experiment with LOX IMVI it was > 100 µM (inactive). The GI50 in the experiment with MCF7, in the experiment on OVCAR-5, in the experiment on RPMI-8226, with SF-539, with SK-MEL-28 and in the experiment with SK-MEL-5 was > 100 µM (inactive) each time. Further, the GI50 with SK-OV-3, with SN12C and in the experiment with UO-31 was > 100 µM (inactive) in each case.
